Source: US10138468B2, “Method for differentiation of pluripotent stem cells into multi-competent renal precursors” (Hoffmann-La Roche Inc., priority 2013, dated 2018)
Entries after “also recorded” stand apart in the source; their conditions may differ.

How the values were obtained:
[1] = tested on: hPSCs-derived Podocytes cells; assay: Functional response to stressor stimulation: ZO-1 localization by immunocytochemistry and image based high content analysis; format: cell-based, human; conditions: podocytes at Day 13, already at Day 1, sustained at D2 and D5, DMEMF12 medium
Experimental: (§1) FIG. 6: Characterization of monolayer differentiated hPSCs-derived Podocytes cells at Day 13. hiPSCs have been differentiated in monolayer conditions and at Day 13 have been tested for functional response to TGF beta (10 ng/ml) stressor stimulation. The expression of the tight junction marker ZO-1 has been tested by immunocytochemistry analysis and its cellular localization by image based high content analysis (HCA).
as §1, with “7:” for “6:”, “Angiotensin II (AngII) (100 nM)” for “TGF beta (10 ng/ml)”
The cells were fixed with PBS containing 4% paraformaldehyde for 20 min at room temperature. After three washing with PBS the cells the cells were then blocked with 5% BSA solution (Blocking buffer) for 60 min. When probing for an intracellular antigen, 0.5% Triton-X was included in the blocking buffer. […] Fluorescence was acquired and analyzed by the Operetta® High Content Imaging System (PerkinElmer) followed by computer-based image analysis (ImageJ, Java-based image processing program). […]

[2] = tested on: hPSCs-derived Podocytes cells; assay: Pro-inflammatory cytokine response assay (Bio-Plex Pro Cytokine, Chemokine and Growth factor assay); format: cell-based, human; conditions: TNFα 1 ng/ml and 5 ng/ml, 24 h, DMEMF12 medium
Experimental: FIG. 8a: Pro-inflammatory cytokine response assay. hPSCs-derived Podocytes cells at Day 13 upregulate the expression of pro-inflammatory markers such as IL-8 upon stimulation with TNFα (1 ng/ml and 5 ng/ml) after 24 h in DMEMF12 medium Main panel: Quantification graph: concentration in the harvested supernatant (pg/ml) of the mentioned cytokines. Bio-Plex Pro Cytokine, Chemokine and Growth factor assay was used to measure the activation of hPSCs-derived Podocytes cells in response to TNFα.
In response to proinflammatory stimuli Podocytes express specific cytokines including IL-8, Rantes, MIP-1b and MCP1. Bio-Plex Pro™ Cytokine, Chemokine and Growth factor assay (Biorad, M50-0KCAF0Y). After overnight serum starvation hiPS derived podocytes were exposed at two different concentrations of TNFα (1 and 5 ng/ml) for 24 hours. After treatment the supernatants were collected and used to quantify the Cytokine, Chemokine and Growth factor release using Bio-Plex Pro™ Cytokine, Chemokine and Growth factor assay kit (Biorad, M50-0KCAF0Y). The assay was performed following the manufacturer's instruction. To determine whether the differentiation system generates bona fide Podocytes, we challenged the iPS-derived Podocytes with proinflammatory TNFα and analyzed for cytokine and chemokine release.

Substance: Angiotensin II [AngII, stressor stimulation (100 nM) of podocytes]
- ZO-1 cellular localization (perinuclear translocation of ZO-1 expression) ([1]; AngII 100 nM): remodeling and translocation of the ZO-1 expression form the membrane to the perinuclear zone

Substance: TGF beta: stressor stimulation (10 ng/ml) of podocytes
- ZO-1 cellular localization (perinuclear translocation of ZO-1 expression) ([1]; TGF beta 10 ng/ml): remodeling and translocation of the ZO-1 expression form the membrane to the perinuclear zone

Substance: TNFα
- IL-8 concentration in the harvested supernatant [2]: increase of the supernatant concentration; also recorded: significantly upregulated
- MCP1 concentration in the harvested supernatant [2]: increase of the supernatant concentration; also recorded: significantly upregulated
- MIP1b concentration in the harvested supernatant [2]: increase of the supernatant concentration; also recorded: significantly upregulated
- RANTES concentration in the harvested supernatant [2]: increase of the supernatant concentration; also recorded: significantly upregulated
